In assay [1] the test system is CL 5701 (Pseudomonas aeruginosa; Pa AmpC). Put plainly: Synergy assay (checkerboard) with imipenem against P. aeruginosa strain CL5701. Format: cell-based. To be noted: for 2X Synergy CL5701: BLI concentration reducing the MIC of imipenem by a factor of 2, P. aeruginosa strain CL5701.
The test system of assay [2] is CL 6569 (Klebsiella pneumoniae; KPC-2). Put plainly: Synergy assay (checkerboard) with imipenem against K. pneumoniae strain CL6569. To be noted: for 16X Synergy CL6569: BLI concentration reducing the MIC of imipenem by a factor of 16, K. pneumoniae strain CL6569; for 32X Synergy CL6569: BLI concentration reducing the MIC of imipenem by a factor of 32, K. pneumoniae strain CL6569; for 64X Synergy CL6569: BLI concentration reducing the MIC of imipenem by a factor of 64, K. pneumoniae strain CL6569.
From the text: The assay determines the concentration of a β-lactamase inhibitor required to reduce the MIC of a β-lactam antibiotic by one-half, one-quarter, one-eighth, one-sixteenth and one-thirty-second against strains of bacteria normally resistant to the antibiotic in question. This is accomplished by titrating the BLI in a serial dilution across a microtiter plate while at the same time titrating the antibiotic in a serial dilution down the microtiter plate and then inoculating the plate with the bacterial strain in question and allowing the bacteria to grow up overnight. Each well in this microplate checkerboard contains a different combination of concentrations of the inhibitor and the antibiotic allowing a full determination of any synergy between the two.
Plates are left at 37° C. for about 20 hours and scored for growth by eye.
Synergy may be expressed as a ratio of the minimum inhibitory concentration (MIC) of an antibiotic tested in the absence of a β-lactamase inhibitor to the MIC of the same antibiotic tested in the presence of the β-lactamase inhibitor. […] Alternatively, the synergy effect may be expressed as a factor, again, utilizing a concentration of the BLI to lower the MIC of the antibiotic.

For assay [3], the target named is KPC-2 (K. pneumoniae) (Klebsiella pneumoniae, UniProt Q9F663). Put plainly: biochemical.
Sequence of KPC-2 (K. pneumoniae) (Q9F663 25-293 limits assumed): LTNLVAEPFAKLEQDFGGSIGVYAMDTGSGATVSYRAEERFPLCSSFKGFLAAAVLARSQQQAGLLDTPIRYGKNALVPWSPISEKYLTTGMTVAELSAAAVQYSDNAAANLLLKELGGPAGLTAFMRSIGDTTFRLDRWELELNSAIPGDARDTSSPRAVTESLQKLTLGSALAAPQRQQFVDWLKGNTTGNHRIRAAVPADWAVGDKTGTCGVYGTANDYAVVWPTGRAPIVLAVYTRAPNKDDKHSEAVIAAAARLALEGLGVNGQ
The target in assay [4] is AmpC (P. aeruginosa) (Pseudomonas aeruginosa (strain ATCC 15692 / DSM 22644 / CIP 104116 / JCM 14847 / LMG 12228 / 1C / PRS 101 / PAO1), UniProt P24735). Put plainly: biochemical. The procedure:
The Class C enzyme activities were measured in the presence of the test inhibitor in spectrophotometric assay against the commercially available substrate, nitrocefin. The enzyme AmpC (P. aeruginosa.), and the substrate, were dissolved in 100 mM KH2PO4 buffer (pH 7). The buffer also contains 0.005% BSA. The test inhibitor was dissolved in DMSO and diluted 1:20 in the assay, resulting in a final concentration range of 50 μM to 0.0002 μM. In a 96-well microplate, the test inhibitor was incubated with the beta-lactamase enzyme for 40 minutes at ambient temperature, the substrate solution was added, and the incubation continued for another 40 minutes. […] The IC50 value was determined from semi logarithmic plots of enzyme inhibition versus inhibitor concentration, with a curve generated using a 4-parameter fit.

Setting [5] is: BLI concentration reducing the MIC of imipenem by a factor of 4, P. aeruginosa strain CL5701.
[6] abbreviates: BLI concentration reducing the MIC of imipenem by a factor of 8, P. aeruginosa strain CL5701.
Setting [7] is: Table 2, read-out: K.p. KPC-2 IC50.
The mark [8] stands for this setting: Table 3, read-out: K.p. KPC-2 IC50.
The mark [9] stands for this setting: Table 2, read-out: P.a. AmpC IC50.
The mark [10] stands for this setting: Table 3, read-out: P.a. AmpC IC50.

By IC50 is commonly meant the concentration that gives 50% inhibition.

The structures appear in SMILES notation. Where two headings read alike, the source gives them in different places.

Sequence of AmpC (P. aeruginosa) (P24735 27-397): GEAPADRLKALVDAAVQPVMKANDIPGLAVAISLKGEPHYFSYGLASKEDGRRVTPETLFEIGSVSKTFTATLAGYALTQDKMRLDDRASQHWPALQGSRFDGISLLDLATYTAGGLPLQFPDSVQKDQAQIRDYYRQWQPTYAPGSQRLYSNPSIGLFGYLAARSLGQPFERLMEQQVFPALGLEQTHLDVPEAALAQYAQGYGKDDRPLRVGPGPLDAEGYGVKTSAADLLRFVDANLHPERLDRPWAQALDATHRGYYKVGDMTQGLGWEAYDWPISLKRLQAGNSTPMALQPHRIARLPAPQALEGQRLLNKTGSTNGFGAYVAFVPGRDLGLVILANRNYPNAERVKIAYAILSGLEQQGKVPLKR

In the case of `O=C(NC1CCNCC1)[C@@H]1CC[C@@H]2CN1C(=O)N2OS(=O)(=O)O` [Example 1, (2S,5R)-7-oxo-N-piperidin-4-yl-6-(sulfooxy)-1,6-diazabicyclo[3.2.1]octane-2-carboxamide], the “2X Synergy CL5701” value in assay [1] worked out at 0.2 µM. The “4X Synergy CL5701” value in assay [1] (setting [5]) amounted to 3.12 µM. For the same compound, in assay [1] (setting [6]), the “8X Synergy CL5701” value was 6.25 µM. Also, in assay [2], the “16X Synergy CL6569” value came to 6.25 µM, the “32X Synergy CL6569” value is 12.5 µM and the “64X Synergy CL6569” value worked out at 12.5 µM.

On to `O=C(N[C@H]1CCCNCC1)[C@@H]1CC[C@@H]2CN1C(=O)N2OS(=O)(=O)O` [Example 2, (2S,5R)—N-[(4S)-Azepan-4-yl]-7-oxo-6-(sulfooxy)-1,6-diazabicyclo[3.2.1]-octane-2-carboxamide], for which, in assay [3] (setting [7]), the IC50 was 245 nM. For the same compound, the IC50 in assay [3] (setting [8]) is 245 nM. Also, the “2X Synergy CL5701” value in assay [1] was 3.12 µM. Besides, in assay [1] (setting [5]), the “4X Synergy CL5701” value came out at 6.25 µM. Further, in assay [1] (setting [6]), the “8X Synergy CL5701” value is 6.25 µM. Moreover, in assay [2], the “16X Synergy CL6569” value was 6.25 µM, the “32X Synergy CL6569” value was determined as 12.5 µM and the “64X Synergy CL6569” value stood at 25 µM. In assay [4], this compound registered an IC50 of 69 nM.

`O=C(N[C@@H]1CCNC1)[C@@H]1CC[C@@H]2CN1C(=O)N2OS(=O)(=O)O` [Example 4, (2S,5R)-7-Oxo-N-[(3R)-pyrrolidin-3-yl]-6-(sulfooxy)-1,6-diazabicyclo[3.2.1]-octane-2-carboxamide] displayed an IC50 in assay [3] (K.p. KPC-2 IC50, Table 2) of 4400 nM. Moreover, the “2X Synergy CL5701” value in assay [1] was 100/100/>100 μM. In assay [1] (setting [5]), the “4X Synergy CL5701” value was 100/100/>100 μM. Also, in assay [1] (setting [6]), the “8X Synergy CL5701” value is listed as 100/100/>100 μM. In assay [2], the “16X Synergy CL6569” value turned out to be 50 µM, the “32X Synergy CL6569” value is 100 µM and the “64X Synergy CL6569” value is 100 µM. Also, the IC50 in assay [4] (setting [9]) worked out at 29000 nM.

For the compound `O=C(Nc1ccncc1)[C@@H]1CC[C@@H]2CN1C(=O)N2OS(=O)(=O)O` [Example 6, (2S,5R)-7-Oxo-N-pyridin-4-yl-6-(sulfooxy)-1,6-diazabicyclo[3.2.1]octane-2-carboxamide], in assay [1], the “4X Synergy CL5701” value turned out to be 25 µM, the “8X Synergy CL5701” value came to 100 µM and the “2X Synergy CL5701” value was 12.5 µM. Also, in assay [2], the “16X Synergy CL6569” value came out at 50 µM, the “32X Synergy CL6569” value is 50 µM and the “64X Synergy CL6569” value was > 100 µM. The midpoint of inhibition in assay [4], the IC50, lay at 6 nM.

Take `COc1cc(NC(=O)[C@@H]2CC[C@@H]3CN2C(=O)N3OS(=O)(=O)O)ccn1` [Example 7, (2S,5R)—N-(2-Methoxypyridin-4-yl)-7-oxo-6-(sulfooxy)-1,6-diazabicyclo[3.2.1]octane-2-carboxamide]: the IC50 was 8 nM in assay [3] (setting [7]), 8 nM in assay [3] (setting [8]), 1.1 nM in assay [4] (setting [9]) and 11 nM in assay [4] (setting [10]). Besides, the “2X Synergy CL5701” value in assay [1] is 50 µM. Besides, the “4X Synergy CL5701” value in assay [1] (setting [5]) worked out at 100 µM. In addition, the “8X Synergy CL5701” value in assay [1] (setting [6]) was > 100 µM. In addition, in assay [2], the “16X Synergy CL6569” value worked out at 25 µM. The “32X Synergy CL6569” value in assay [2] is 50 µM. In addition, the “64X Synergy CL6569” value in assay [2] was > 100 µM.

With `CN(C)c1cc(NC(=O)[C@@H]2CC[C@@H]3CN2C(=O)N3OS(=O)(=O)O)ccn1` [Example 8, (2S,5R)—N-[2-(Dimethylamino)pyridin-4-yl]-7-oxo-6-(sulfooxy)-1,6-diazabicyclo[3.2.1]octane-2-carboxamide], the concentration for half-maximal inhibition (IC50) in assay [3] (setting [7]) was determined as 1.6 nM; in assay [3] (setting [8]), 16 nM; in assay [4] (setting [9]) it was 1.6 nM; in assay [4] (setting [10]), 16 nM. In assay [1], the “2X Synergy CL5701” value turned out to be 12.5 µM. Besides, in assay [1] (setting [5]), the “4X Synergy CL5701” value is 100 µM. In assay [1] (setting [6]), the “8X Synergy CL5701” value is > 100 µM. Besides, in assay [2], the “16X Synergy CL6569” value was 25 µM. Further, the “32X Synergy CL6569” value in assay [2] is 25 µM. The “64X Synergy CL6569” value in assay [2] amounted to 50 µM.

Turning to `NCc1ccc(NC(=O)[C@@H]2CC[C@@H]3CN2C(=O)N3OS(=O)(=O)O)cc1` [Example 9, (2S,5R)—N-[4-(aminomethyl)phenyl]-7-oxo-6-(sulfooxy)-1,6-diazabicyclo[3.2.1]octane-2-carboxamide], the IC50 in assay [3] (setting [7]) worked out at 72 nM. Besides, the “2X Synergy CL5701” value in assay [1] came to 0.78 µM. Further, the “4X Synergy CL5701” value in assay [1] (setting [5]) was found to be 3.12 µM. For the same compound, the “8X Synergy CL5701” value in assay [1] (setting [6]) stood at 6.25 µM. Besides, in assay [2], the “16X Synergy CL6569” value stood at 6.25 µM, the “32X Synergy CL6569” value turned out to be 6.25 µM and the “64X Synergy CL6569” value was determined as 12.5 µM. Further, the IC50 in assay [4] (setting [9]) stood at 20 nM.

Take `O=C(O[C@H]1CNCC[C@@H]1F)[C@@H]1CC[C@@H]2CN1C(=O)N2OS(=O)(=O)O` [Example 101]: the IC50 in assay [3] (setting [8]) is 15 nM; in assay [4], 81 nM.

On to `O=C(O[C@H]1CNCC[C@H]1F)[C@@H]1CC[C@@H]2CN1C(=O)N2OS(=O)(=O)O` [Example 102], for which the IC50 was found to be 4 nM in assay [3] (setting [8]) and 76 nM in assay [4].

Turning to `O=C(O[C@@H]1CNC[C@@H]1F)[C@@H]1CC[C@@H]2CN1C(=O)N2OS(=O)(=O)O` [Example 103], the IC50 was found to be 3 nM in assay [3] (setting [8]) and 39 nM in assay [4].

On to `O=C(O[C@H]1CNC[C@H]1F)[C@@H]1CC[C@@H]2CN1C(=O)N2OS(=O)(=O)O` [Example 104], for which the IC50 amounted to 24 nM in assay [3] (setting [8]) and 38 nM in assay [4].

As to `O=C(O[C@@H]1CNC[C@H]1F)[C@@H]1CC[C@@H]2CN1C(=O)N2OS(=O)(=O)O` [Example 105], the IC50 in assay [3] (setting [8]) is 13 nM; in assay [4], 200 nM.

In the case of `O=C(O[C@H]1CNC[C@@H]1F)[C@@H]1CC[C@@H]2CN1C(=O)N2OS(=O)(=O)O` [Example 106], the IC50 turned out to be 10 nM in assay [3] (setting [8]) and 200 nM in assay [4].

With `O=C(O[C@H]1CNOC1)[C@@H]1CC[C@@H]2CN1C(=O)N2OS(=O)(=O)O` [Example 107], the half-maximal inhibitory concentration (IC50) in assay [3] (setting [8]) turned out to be 11 nM; in assay [4] (setting [10]), 39 nM.

As for `O=C(O[C@@H]1CNOC1)[C@@H]1CC[C@@H]2CN1C(=O)N2OS(=O)(=O)O` [Example 108], the figures for the IC50 in assay [3] (setting [8]) and in assay [4] (setting [10]) were 11 nM and 62 nM, respectively.

Regarding `O=C(OC1CNNC1)[C@@H]1CC[C@@H]2CN1C(=O)N2OS(=O)(=O)O` [Example 109], the IC50 in assay [3] (setting [8]) stood at 62 nM; in assay [4] (setting [10]) it was 700 nM.

With `NCCOC(=O)[C@@H]1CC[C@@H]2CN1C(=O)N2OS(=O)(=O)O` [Example 110], the IC50 in assay [3] (setting [8]) worked out at 30 nM; in assay [4] (setting [10]), 610 nM.

For `O=C(OCCN1CCCCC1)[C@@H]1CC[C@@H]2CN1C(=O)N2OS(=O)(=O)O` [Example 111], the IC50 stood at 20 nM in assay [3] (setting [8]) and 1200 nM in assay [4] (setting [10]).

With `O=C(OCCC1CCNCC1)[C@@H]1CC[C@@H]2CN1C(=O)N2OS(=O)(=O)O` [Example 112], the IC50 in assay [3] (setting [8]) stood at 13 nM; in assay [4] it was 165 nM.

With `CC1(COC(=O)[C@@H]2CC[C@@H]3CN2C(=O)N3OS(=O)(=O)O)CCNCC1` [Example 113], the IC50 in assay [3] (setting [8]) is 8 nM; in assay [4] (setting [10]), 36 nM.

For `O=C(OCC1CNCCCO1)[C@@H]1CC[C@@H]2CN1C(=O)N2OS(=O)(=O)O` (stereo partly shown) [Example 114], the IC50 stood at 11 nM in assay [3] (setting [8]) and 340 nM in assay [4] (setting [10]).

Regarding `NCc1ccc(OC(=O)[C@@H]2CC[C@@H]3CN2C(=O)N3OS(=O)(=O)O)cc1` [Example 115], the results for the IC50 in assay [3] (setting [8]) and in assay [4] (setting [10]) were 2 nM and 24 nM, respectively.

On to `CC(=O)Oc1ccc(C(=O)NCCOC(=O)[C@@H]2CC[C@@H]3CN2C(=O)N3OS(=O)(=O)O)cc1OC(C)=O` [Example 116], for which the IC50 in assay [3] (setting [8]) was 70 nM; in assay [4] (setting [10]) it was 440 nM.

In the case of `CC(=O)Oc1ccc(C(=O)NCC(CNC(=O)c2ccc(OC(C)=O)c(OC(C)=O)c2)OC(=O)[C@@H]2CC[C@@H]3CN2C(=O)N3OS(=O)(=O)O)cc1OC(C)=O` [Example 117], the IC50 in assay [3] (setting [8]) came out at 12 nM; in assay [4] (setting [10]), 61 nM.

As for `CC1(C)[C@H](C(=O)O)N2C(=O)C[C@H]2S1(=O)=O` [Sulbactam, sulbactam, reference compound], the IC50 was 33000 nM in assay [3] (setting [7]) and 17000 nM in assay [4] (setting [9]).

Values taken from patent US8487093B2, “β-lactamase inhibitors” (Merck Sharp & Dohme Corp., priority 2008, dated 2013).
